Molecular target: T1, pig liver glycolate oxidase (Sus scrofa, UniProt I3LVF1)
T1 construct: The enzyme was pig liver glycolate oxidase; from tissue; host or cells: pig liver
T1 sequence (I3LVF1 1-370): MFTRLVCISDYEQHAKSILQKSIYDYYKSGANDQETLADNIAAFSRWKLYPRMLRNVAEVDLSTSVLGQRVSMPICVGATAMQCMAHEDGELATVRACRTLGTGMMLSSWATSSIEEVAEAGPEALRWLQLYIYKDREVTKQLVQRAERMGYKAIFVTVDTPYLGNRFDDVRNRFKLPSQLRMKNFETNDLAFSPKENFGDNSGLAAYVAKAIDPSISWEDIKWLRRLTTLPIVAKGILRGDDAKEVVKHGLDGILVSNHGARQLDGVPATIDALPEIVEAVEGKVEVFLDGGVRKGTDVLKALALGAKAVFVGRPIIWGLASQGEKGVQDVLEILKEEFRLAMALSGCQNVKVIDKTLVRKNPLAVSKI
Experiment: Glycolate oxidase enzyme inhibition (rate of reduction of sodium 2,6-dichlorophenol-indophenol by sodium glycolate, 600 nm)
Assay type: biochemical
Settings: 25° C., 0.10 M phosphate buffer, pH 7.0, 3 mM EDTA, 2×10^-4 M sodium glycolate, 5×10^-5 M sodium 2,6-dichlorophenol-indophenol, initial rates 1 to 3 min
Description: The usefulness of the compounds of the present invention in treating urinary tract, especially renal, calcium oxalate lithiasis, was shown by the ability of these compounds to inhibit the glycolate oxidase enzyme. […] The activity of the enzyme, in turn, was measured by following the rate of reduction of sodium 2,6-dichlorophenol-indophenol by sodium glycolate in the presence of the enzyme. The enzyme was pig liver glycolate oxidase. The reaction was following spectrophotometrically at 600 nm. The assay was conducted at 25° C. in a 0.10 M phosphate buffer, pH 7.0, contining 3 mM EDTA. Initial substrate concentrations were 5×10^-5 M of sodium 2,6-dichlorophenol-indophenol and 2×10^-4 M of sodium glycolate. Reactions were initiated by the addition of enzyme. Initial rates during the period from 1 to 3 min. after the addition of enzyme were recorded on a Beckman Acta M-VI spectrophotometer. One control was run simultaneously with three test reactions, and all initial rates were adjusted to a common control rate. For further details of this procedure, see Randall et al., J. Med. Chem., 22, 6, 612 (1979).

IC50 [µM]	Compound
0.11	O=C1NS(=O)(=O)C(c2csc(-c3ccc(Cl)c(Cl)c3)n2)=C1O [5-[2-(3,4-Dichlorophenyl)thiazol-4-yl]-4-hydroxy-3(2H)-isothiazolone-1,1-dioxide]
0.6	O=C1NS(=O)(=O)C(c2nc(-c3ccc(Cl)c(Cl)c3)cs2)=C1O [5-[4-(3,4-Dichlorophenyl)thiazol-2-yl]-4-hydroxy-3(2H)-isothiazolone-1,1-dioxide]
